The assay addresses T1, TRAP1 enzyme (Homo sapiens, UniProt Q12931).
T1 sequence (Q12931 60-704): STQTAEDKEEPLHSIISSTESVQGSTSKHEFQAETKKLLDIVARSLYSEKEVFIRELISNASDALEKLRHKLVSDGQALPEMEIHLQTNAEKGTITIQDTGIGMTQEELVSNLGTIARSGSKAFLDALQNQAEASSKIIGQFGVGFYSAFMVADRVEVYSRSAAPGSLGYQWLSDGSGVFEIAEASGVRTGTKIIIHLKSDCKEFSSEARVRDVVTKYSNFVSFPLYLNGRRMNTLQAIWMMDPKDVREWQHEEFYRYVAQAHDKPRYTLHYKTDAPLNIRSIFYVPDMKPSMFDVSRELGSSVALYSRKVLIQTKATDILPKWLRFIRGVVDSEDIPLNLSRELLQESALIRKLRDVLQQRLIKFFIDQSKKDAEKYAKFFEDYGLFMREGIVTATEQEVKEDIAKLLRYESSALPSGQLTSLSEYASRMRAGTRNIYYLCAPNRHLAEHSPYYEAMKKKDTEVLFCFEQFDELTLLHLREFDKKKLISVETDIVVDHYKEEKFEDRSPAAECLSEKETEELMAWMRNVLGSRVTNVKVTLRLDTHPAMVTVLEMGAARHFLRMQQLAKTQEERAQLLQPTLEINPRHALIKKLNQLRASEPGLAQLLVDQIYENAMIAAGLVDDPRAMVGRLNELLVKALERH
Kind of assay: ADP Glo assay of TRAP1 ATPase activity. The class given is biochemical. The conditions noted are these: for EC50: TRAP1 ATPase activation, 150 nM Trap1, 20 μM ATP, geometric mean, read-out: ADP GLO DRC: GeoMean EC50; for Emax: read-out: ADP GLO DRC: Mean Emax. The method, boiled down: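 150 nM TRAP1 preincubated with compound (0.79–100 μM) 30 min at 37° C in Pipes pH 7.5 buffer (0.05 mM MgCl2, 40 mM KCl), then 20 μM ATP added for 60 min at 37° C. ADP quantified by ADP-Glo luminescence against ATP/ADP standard curve. Emax and EC50 from sigmoidal fit.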
In general terms: ADP-Glo first removes unused ATP, then detects ADP through luciferase.

A value given as a limit tells only on which side of the number the result lay.

Usually EC50 stands for the concentration that produces a half-maximal response. What is called Emax is the greatest response seen or fitted, relative to the assay's reference.

As to `COc1ccc(NC(=O)c2cnc(Cl)cc2Cl)cc1S(=O)(=O)Nc1c(C)cccc1C` [Compound 1082], the EC50 fell in the range of 20 to 100 µM and the Emax fell in the range of 200 to 300%.
In the same order, the values of `Cn1cnc2cc(C(=O)Nc3ccc(F)c(S(=O)(=O)Nc4ccc(Cl)cc4)c3)ccc2c1=O` [Compound 1256] are 20 to 100 µM and 123 to 159%.
For `COc1ccc(NC(=O)c2cnn(-c3ccccc3)c2)cc1S(=O)(=O)Nc1c(C)cccc1C` [Compound 1292], the EC50 lay in the range of 10 to 20 µM and the Emax lay in the range of 200 to 300%.
Turning to `COc1ccc(NC(=O)c2nc3c(C)cccc3s2)cc1S(=O)(=O)Nc1c(C)cccc1C` [Compound 1125], the EC50 is less than 10 µM and the Emax lay in the range of 160 to 199%.
Turning to `COc1ccc(NC(=O)c2cccc3cnccc23)cc1S(=O)(=O)Nc1c(C)cccc1C` [Compound 1224], the EC50 lay within 20 to 100 µM and the Emax is 160 to 199%.
As to `CCc1ccnc(C(=O)Nc2ccc(OC)c(S(=O)(=O)Nc3c(C)cccc3C)c2)c1` [Compound 1151], the EC50 was less than 10 µM and the Emax was in the range of 200 to 300%.
For `COc1ccc(NC(=O)c2ncc(-c3ccccc3)o2)cc1S(=O)(=O)Nc1c(C)ccnc1OC` [Compound 1666], the EC50 was in the range of 10 to 20 µM and the Emax fell in the range of 123 to 159%.
In the same order, the values of `CCc1cc(C(=O)Nc2ccc(OC)c(S(=O)(=O)Nc3c(C)cccc3C)c2)cc(C)n1` [Compound 1018] are 10 to 20 µM and more than 300%.
With `O=C(Nc1ccc(F)c(S(=O)(=O)Nc2ccc(Cl)cc2)c1)c1cccc2c1OC(F)(F)O2` [Compound 737], the EC50 fell in the range of 10 to 20 µM and the Emax fell in the range of 123 to 159%.
On to `O=C(Nc1ccc(F)c(S(=O)(=O)Nc2ccc(Cl)cc2)c1)c1ccccc1C(=O)c1ccccc1` [Compound 681], for which the EC50 was less than 10 µM and the Emax lay in the range of 160 to 199%.
With `COc1ccc(NC(=O)c2cc(-c3ccccc3)[nH]n2)cc1S(=O)(=O)Nc1c(C)cccc1C` [Compound 1258], the EC50 is less than 10 µM and the Emax was in the range of 200 to 300%.
Consider `COc1ccc(NC(=O)c2cccc3ncsc23)cc1S(=O)(=O)Nc1c(C)cccc1C` [Compound 1227], for which the EC50 was in the range of 10 to 20 µM and the Emax fell in the range of 200 to 300%.
As to `COc1ccc(NC(=O)c2cc(Cl)ncc2C(F)(F)F)cc1S(=O)(=O)Nc1c(C)cccc1C` [Compound 1274], the half-maximal effective concentration (EC50) lay within 20 to 100 µM and the Emax lay within 123 to 159%.
Regarding `CCCn1cc(C(=O)Nc2ccc(F)c(S(=O)(=O)Nc3ccc(Cl)cc3)c2)cn1` [Compound 683], the EC50 was 20 to 100 µM and the Emax lay in the range of 200 to 300%.
Take `COc1ccc(NC(=O)c2cc(F)ccc2OC(F)(F)F)cc1S(=O)(=O)Nc1c(C)cccc1C` [Compound 1092]: the EC50 was less than 10 µM and the Emax fell in the range of 160 to 199%.
Regarding `COc1ccc(NC(=O)c2cccc(C(=O)N(C)C)c2)cc1S(=O)(=O)Nc1c(C)cccc1C` [Compound 1095], the EC50 lay in the range of 20 to 100 µM and the Emax fell in the range of 160 to 199%.
With `CC(C)(C)OC(=O)c1ccccc1C(=O)Nc1ccc(F)c(S(=O)(=O)Nc2ccc(Cl)cc2)c1` [Compound 694], the EC50 was in the range of 20 to 100 µM and the Emax fell in the range of 123 to 159%.
On to `COc1ccc(NC(=O)c2cccc3nccnc23)cc1S(=O)(=O)Nc1c(C)cccc1C` [Compound 1251], for which the EC50 lay in the range of 10 to 20 µM and the Emax was 160 to 199%.
In the same order, the values of `COc1ccc(NC(=O)c2ccccc2C2CC2)cc1S(=O)(=O)Nc1c(C)cccc1C` [Compound 1028] are 10 to 20 µM and 160 to 199%.
For the molecule `COc1ccc(NC(=O)c2cccc(-c3noc(C)n3)c2)cc1S(=O)(=O)Nc1c(C)cccc1C` [Compound 1243], the EC50 was less than 10 µM and the Emax lay within 200 to 300%.
On to `COc1ccc(NC(=O)c2ccc(S(=O)(=O)N(C)C)cc2)cc1S(=O)(=O)Nc1c(C)cccc1C` [Compound 1120], for which the EC50 was in the range of 20 to 100 µM and the Emax fell in the range of 160 to 199%.
With `COc1ccc(NC(=O)c2ccc3nc(C)sc3c2)cc1S(=O)(=O)Nc1c(C)cccc1C` [Compound 1231], the EC50 lay in the range of 10 to 20 µM and the Emax is more than 300%.
`COc1ccc(NC(=O)c2cocn2)cc1S(=O)(=O)Nc1ccc(Cl)cc1` [Compound 1961]: the EC50 fell in the range of 20 to 100 µM and the Emax was 160 to 199%.
For `COc1ccc(NC(=O)c2cccc(-n3cncn3)c2)cc1S(=O)(=O)Nc1c(C)cccc1C` [Compound 1126], in that order: 10 to 20 µM and 160 to 199%.
In the case of `O=C(Nc1ccc(F)c(S(=O)(=O)Nc2ccc(Cl)cc2)c1)c1cccc2cnccc12` [Compound 773], the EC50 lay within 10 to 20 µM and the Emax lay within 123 to 159%.
As to `COc1ccc(NC(=O)c2cccc3nc(C)sc23)cc1S(=O)(=O)Nc1c(C)cccc1C` [Compound 1017], the EC50 was less than 10 µM and the Emax was in the range of 200 to 300%.
Regarding `COc1ccc(NC(=O)c2cccc3ncccc23)cc1S(=O)(=O)Nc1c(C)cccc1C` [Compound 1219], the EC50 fell in the range of 20 to 100 µM and the Emax was 160 to 199%.
As for `COc1ccc(NC(=O)c2ccc3cnn(C)c3c2)cc1S(=O)(=O)Nc1c(C)cccc1C` [Compound 1370], the EC50 was in the range of 20 to 100 µM and the Emax was more than 300%.
Regarding `COc1ccc(NC(=O)c2cnc3ccccc3c2)cc1S(=O)(=O)Nc1c(C)cccc1C` [Compound 1330], the EC50 is less than 10 µM and the Emax fell in the range of 200 to 300%.
As to `COc1ccc(NC(=O)c2cccnc2SCc2ccccc2)cc1S(=O)(=O)Nc1c(C)cccc1C` [Compound 1157], the half-maximal effective concentration (EC50) is less than 10 µM and the Emax fell in the range of 123 to 159%.
Take `COc1ccc(NC(=O)c2ccnc(SC)n2)cc1S(=O)(=O)Nc1c(C)cccc1C` [Compound 1039]: the EC50 lay in the range of 20 to 100 µM and the Emax was in the range of 160 to 199%.
As to `COc1ccc(NC(=O)c2c(C(F)(F)F)ccnc2C)cc1S(=O)(=O)Nc1c(C)cccc1C` [Compound 1153], the EC50 lay within 20 to 100 µM and the Emax is 123 to 159%.
For the molecule `COc1ccc(NC(=O)c2ncc(-c3ccccc3)o2)cc1S(=O)(=O)Nc1c(C)csc1C` [Compound 1693], the EC50 is less than 10 µM and the Emax lay in the range of 160 to 199%.
Take `CCOc1cc(OCC)cc(C(=O)Nc2ccc(OC)c(S(=O)(=O)Nc3c(C)cccc3C)c2)c1` [Compound 1117]: the EC50 was less than 10 µM and the maximal response (Emax) lay within 123 to 159%.
In the case of `Cc1ncc(Br)cc1C(=O)Nc1ccc(F)c(S(=O)(=O)Nc2ccc(Cl)cc2)c1` [Compound 795], the EC50 lay within 10 to 20 µM and the Emax lay in the range of 160 to 199%.
For the molecule `COc1ccc(NC(=O)c2nn(C)c3c2CCC3)cc1S(=O)(=O)Nc1c(C)cccc1C` [Compound 1010], the EC50 is 10 to 20 µM and the Emax was 200 to 300%.
Take `COc1ccc(NC(=O)c2csc(-c3cccs3)n2)cc1S(=O)(=O)Nc1c(C)cccc1C` [Compound 1136]: the EC50 is less than 10 µM and the Emax fell in the range of 160 to 199%.
Regarding `COc1ccc(NC(=O)c2cc(C)cc(F)c2F)cc1S(=O)(=O)Nc1c(C)cccc1C` [Compound 1164], the EC50 was less than 10 µM and the Emax lay in the range of 123 to 159%.
In the same order, the values of `COc1ccc(NC(=O)c2cc3ccccc3n2C)cc1S(=O)(=O)Nc1c(C)cccc1C` [Compound 1170] are less than 10 µM and 123 to 159%.
As for `COc1ccc(NC(=O)c2cc(C)n(C)c2)cc1S(=O)(=O)Nc1c(C)cccc1C` [Compound 1009], the EC50 fell in the range of 20 to 100 µM and the Emax is 160 to 199%.
Regarding `COc1ccc(NC(=O)c2cnc(-c3cccs3)[nH]2)cc1S(=O)(=O)Nc1ccc(Cl)cc1` [Compound 1938], the EC50 is less than 10 µM and the Emax fell in the range of 200 to 300%.
Consider `COc1ccc(NC(=O)c2nn(C(C)C)c3ccccc23)cc1S(=O)(=O)Nc1c(C)cccc1C` [Compound 1109], for which the EC50 was less than 10 µM and the Emax fell in the range of 123 to 159%.
As to `COc1ccc(NC(=O)c2cnoc2C2CC2)cc1S(=O)(=O)Nc1c(C)cccc1C` [Compound 1160], the EC50 was in the range of 20 to 100 µM and the Emax lay in the range of 160 to 199%.
With `COc1ccc(NC(=O)c2ncc(-c3ccccc3)o2)cc1S(=O)(=O)Nc1sc(C)c(C)c1C#N` [Compound 1672], the EC50 lay in the range of 10 to 20 µM and the Emax fell in the range of 160 to 199%.
As to `COc1ccc(NC(=O)c2ncc(-c3ccccc3)o2)cc1S(=O)(=O)Nc1cccc(C(F)(F)F)n1` [Compound 1805], the EC50 is 10 to 20 µM and the Emax was in the range of 200 to 300%.
With `COc1ccc(NC(=O)c2cc(C3CC3)on2)cc1S(=O)(=O)Nc1c(C)cccc1C` [Compound 1031], the EC50 was in the range of 10 to 20 µM and the Emax fell in the range of 200 to 300%.
With `CCc1noc(CC)c1C(=O)Nc1ccc(F)c(S(=O)(=O)Nc2ccc(Cl)cc2)c1` [Compound 830], the EC50 was 20 to 100 µM and the Emax was in the range of 160 to 199%.
In the case of `COc1ccc(NC(=O)c2ccncc2-c2ccccc2)cc1S(=O)(=O)Nc1c(C)cccc1C` [Compound 1267], the EC50 is 20 to 100 µM and the Emax fell in the range of 123 to 159%.

These data come from patent US20230174523A1, “BENZENESULFONAMIDE DERIVATIVES AS TRAP1 MODULATORS AND USES THEREOF” (Amathus Therapeutics, Inc., priority 2020, published 2023).
